Results published in ChEMBL document CHEMBL5113558, “Discovery of Potent PROTACs for the Potential Treatment of Leukemia” (ACS Med Chem Lett, 2022).

Target: Protein cereblon/Tyrosine-protein kinase JAK2 (Homo sapiens, UniProt O60674+Q96SW2)
Assay: Protac activity at E3 ubiquitin ligase/JAK2 in human MHH-CALL-4 cells assessed as E3 ubiquitin ligase mediated JAK2 degradation incubated for 32 hrs by immunoblotting analysis
Format: cell-based, MHHCALL4

Protein cereblon/Tyrosine-protein kinase JAK2, sequence (O60674 whole entry): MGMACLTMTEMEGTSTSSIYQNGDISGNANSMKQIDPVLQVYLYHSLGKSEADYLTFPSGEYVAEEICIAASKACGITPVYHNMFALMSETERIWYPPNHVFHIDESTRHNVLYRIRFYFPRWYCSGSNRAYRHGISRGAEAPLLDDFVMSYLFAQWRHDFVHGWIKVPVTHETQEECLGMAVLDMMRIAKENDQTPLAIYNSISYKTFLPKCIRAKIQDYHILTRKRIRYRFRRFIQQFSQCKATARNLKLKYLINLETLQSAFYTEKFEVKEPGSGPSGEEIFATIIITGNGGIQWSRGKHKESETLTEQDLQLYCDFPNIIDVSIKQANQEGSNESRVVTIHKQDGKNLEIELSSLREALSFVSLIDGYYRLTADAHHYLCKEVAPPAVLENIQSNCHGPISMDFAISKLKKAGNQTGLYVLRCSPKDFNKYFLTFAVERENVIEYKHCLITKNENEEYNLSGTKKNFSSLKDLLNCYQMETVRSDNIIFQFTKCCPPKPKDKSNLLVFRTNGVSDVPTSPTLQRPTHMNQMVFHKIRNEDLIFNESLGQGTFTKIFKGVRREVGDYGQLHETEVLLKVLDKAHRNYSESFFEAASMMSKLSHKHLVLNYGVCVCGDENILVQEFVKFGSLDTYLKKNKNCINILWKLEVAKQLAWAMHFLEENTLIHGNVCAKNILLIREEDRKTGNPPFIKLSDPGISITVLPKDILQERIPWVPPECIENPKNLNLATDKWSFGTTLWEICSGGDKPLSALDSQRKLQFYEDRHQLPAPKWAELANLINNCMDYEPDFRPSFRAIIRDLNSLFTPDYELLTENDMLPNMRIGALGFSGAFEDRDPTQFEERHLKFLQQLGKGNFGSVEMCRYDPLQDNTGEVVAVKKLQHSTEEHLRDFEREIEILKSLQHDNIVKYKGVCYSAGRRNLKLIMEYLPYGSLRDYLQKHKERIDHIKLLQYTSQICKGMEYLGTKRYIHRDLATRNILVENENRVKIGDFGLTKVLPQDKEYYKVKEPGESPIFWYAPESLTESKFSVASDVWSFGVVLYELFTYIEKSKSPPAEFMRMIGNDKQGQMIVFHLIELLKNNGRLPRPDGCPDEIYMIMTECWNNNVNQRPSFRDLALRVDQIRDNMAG
Protein cereblon/Tyrosine-protein kinase JAK2, sequence (Q96SW2 whole entry): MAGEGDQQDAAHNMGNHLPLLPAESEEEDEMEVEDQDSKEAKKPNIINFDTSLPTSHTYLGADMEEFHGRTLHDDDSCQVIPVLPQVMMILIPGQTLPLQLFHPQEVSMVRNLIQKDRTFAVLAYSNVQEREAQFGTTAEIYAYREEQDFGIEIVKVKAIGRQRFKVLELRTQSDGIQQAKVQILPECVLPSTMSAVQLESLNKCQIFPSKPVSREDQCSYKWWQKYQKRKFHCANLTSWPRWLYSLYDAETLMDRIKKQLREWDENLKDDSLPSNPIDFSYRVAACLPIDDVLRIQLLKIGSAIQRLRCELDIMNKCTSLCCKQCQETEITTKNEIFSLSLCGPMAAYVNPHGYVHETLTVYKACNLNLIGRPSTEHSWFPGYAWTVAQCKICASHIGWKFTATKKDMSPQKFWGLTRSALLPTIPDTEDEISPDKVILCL

Work on `CCCn1cc(-c2nc(Nc3ccc(C(=O)NCCCCCc4cccc5c4CN(C4CCC(=O)NC4=O)C5=O)cc3)nc3[nH]ccc23)cn1` (stereo unspecified) yielded an EC50 of 0.5 nM.
